In ChEMBL document CHEMBL6182889, “Discovery of the first-in-class DOT1L PROTAC degrader” (Eur J Med Chem, 2025):
Calls of active or inactive are those of the source. No cut-off for these calls is given here.

Assays:
[1] = biological target: T1, von Hippel-Lindau disease tumor suppressor/Histone-lysine N-methyltransferase, H3 lysine-79 specific (Homo sapiens, UniProt Q8TEK3+P40337); experiment: PROTAC activity at VHL/DOTIL in mixed-lineage leukemia rearranged (MLL-r) human THP-1 cells assessed as induction of DOT1L degradation by measuring reduction in DOTIL protein level at 0.3 uM incubated for 24 hrs by western blot analysis relative to control; format: cell-based; set-up: scale not given: the % may be the effect or the level left
Target sequence in this assay (P40337 whole entry, looked up): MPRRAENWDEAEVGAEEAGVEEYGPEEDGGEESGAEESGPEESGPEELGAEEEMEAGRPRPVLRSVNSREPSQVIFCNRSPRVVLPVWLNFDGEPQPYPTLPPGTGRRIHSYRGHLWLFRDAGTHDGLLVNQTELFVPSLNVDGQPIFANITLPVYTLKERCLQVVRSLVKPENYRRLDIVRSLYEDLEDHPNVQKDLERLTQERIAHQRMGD
Target sequence in this assay (Q8TEK3 whole entry, looked up): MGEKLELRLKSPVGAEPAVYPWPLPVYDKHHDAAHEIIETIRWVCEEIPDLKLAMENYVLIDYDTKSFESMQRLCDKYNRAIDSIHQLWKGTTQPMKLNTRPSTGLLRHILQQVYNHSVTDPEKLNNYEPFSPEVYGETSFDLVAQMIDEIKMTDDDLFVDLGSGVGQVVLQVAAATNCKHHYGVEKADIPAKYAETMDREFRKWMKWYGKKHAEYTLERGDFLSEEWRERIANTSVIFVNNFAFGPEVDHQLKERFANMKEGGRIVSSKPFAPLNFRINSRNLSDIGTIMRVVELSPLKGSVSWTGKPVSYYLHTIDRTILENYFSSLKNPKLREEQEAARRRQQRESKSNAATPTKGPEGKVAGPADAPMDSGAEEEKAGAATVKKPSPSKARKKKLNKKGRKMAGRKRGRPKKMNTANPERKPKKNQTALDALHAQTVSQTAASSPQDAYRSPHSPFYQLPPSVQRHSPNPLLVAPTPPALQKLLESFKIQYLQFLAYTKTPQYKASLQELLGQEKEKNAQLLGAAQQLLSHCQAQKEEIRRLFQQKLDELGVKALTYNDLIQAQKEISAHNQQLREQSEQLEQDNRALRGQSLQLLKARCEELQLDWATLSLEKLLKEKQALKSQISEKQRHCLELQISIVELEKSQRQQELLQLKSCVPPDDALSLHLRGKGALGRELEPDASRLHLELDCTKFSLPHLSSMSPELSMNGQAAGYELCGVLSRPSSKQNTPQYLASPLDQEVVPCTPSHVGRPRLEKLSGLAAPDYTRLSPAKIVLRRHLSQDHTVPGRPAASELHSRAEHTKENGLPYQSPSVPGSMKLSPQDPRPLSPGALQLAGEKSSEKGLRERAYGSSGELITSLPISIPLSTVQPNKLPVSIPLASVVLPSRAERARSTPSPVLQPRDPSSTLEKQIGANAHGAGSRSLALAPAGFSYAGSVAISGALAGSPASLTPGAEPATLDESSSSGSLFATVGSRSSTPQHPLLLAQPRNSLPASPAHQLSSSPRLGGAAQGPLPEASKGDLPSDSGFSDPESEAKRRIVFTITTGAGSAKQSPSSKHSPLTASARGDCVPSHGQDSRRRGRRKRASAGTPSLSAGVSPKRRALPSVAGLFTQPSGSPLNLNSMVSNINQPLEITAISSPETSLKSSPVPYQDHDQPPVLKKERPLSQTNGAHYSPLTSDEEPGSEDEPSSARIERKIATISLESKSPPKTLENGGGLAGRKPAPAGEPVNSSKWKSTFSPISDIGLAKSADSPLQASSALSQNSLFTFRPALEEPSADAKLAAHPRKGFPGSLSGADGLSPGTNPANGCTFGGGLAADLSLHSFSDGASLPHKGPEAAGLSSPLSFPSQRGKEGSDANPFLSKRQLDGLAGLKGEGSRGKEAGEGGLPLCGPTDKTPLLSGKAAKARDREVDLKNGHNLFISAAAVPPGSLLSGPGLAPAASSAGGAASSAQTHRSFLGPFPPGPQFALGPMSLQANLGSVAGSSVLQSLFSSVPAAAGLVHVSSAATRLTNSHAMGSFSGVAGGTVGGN

[2] = biological target: T1, von Hippel-Lindau disease tumor suppressor/Histone-lysine N-methyltransferase, H3 lysine-79 specific; experiment: PROTAC activity at VHL/DOT1L in mixed-lineage leukemia rearranged (MLL-r) human MV4-11 cells assessed as induction of DOTIL degradation by measuring fold change in DOT1L protein level at 3 uM incubated for 1 hr by western blot analysis relative to control; format: cell-based
Target sequence in this assay (P40337 whole entry, looked up): as the sequence (P40337 whole entry, looked up) above
Target sequence in this assay (Q8TEK3 whole entry, looked up): as the sequence (Q8TEK3 whole entry, looked up) above

MV4-11 = experiment: Antiproliferative activity against mixed-lineage leukemia rearranged (MLL-r) human MV4-11 cells assessed as inhibition of cell growth incubated for 7 days by CCK-8 assay; format: functional; details: MV4-11, 168 h, time 7 day
[3] = biological target: Histone-lysine N-methyltransferase EZH2 (Homo sapiens) (UniProt Q15910); experiment: Inhibition of human EZH2 using core histone and SAM as substrate at 10 uM by radiometric Hotspot assay
[4] = biological target: T1, von Hippel-Lindau disease tumor suppressor/Histone-lysine N-methyltransferase, H3 lysine-79 specific; experiment: PROTAC activity at VHL/DOT1L in mixed-lineage leukemia rearranged (MLL-r) human MV4-11 cells assessed as induction of DOTIL degradation by measuring fold change in H3K79Me2 level at 3 uM incubated for 48 hrs by western blot analysis relative to control; format: cell-based
Target sequence in this assay (P40337 whole entry, looked up): as the sequence (P40337 whole entry, looked up) above
Target sequence in this assay (Q8TEK3 whole entry, looked up): as the sequence (Q8TEK3 whole entry, looked up) above

[5] = biological target: T2, Histone-lysine N-methyltransferase NSD2 (Homo sapiens) (UniProt O96028); experiment: Inhibition of human NSD2 using nucleosomes and SAM as substrate at 10 uM by radiometric Hotspot assay
T2 sequence (whole entry): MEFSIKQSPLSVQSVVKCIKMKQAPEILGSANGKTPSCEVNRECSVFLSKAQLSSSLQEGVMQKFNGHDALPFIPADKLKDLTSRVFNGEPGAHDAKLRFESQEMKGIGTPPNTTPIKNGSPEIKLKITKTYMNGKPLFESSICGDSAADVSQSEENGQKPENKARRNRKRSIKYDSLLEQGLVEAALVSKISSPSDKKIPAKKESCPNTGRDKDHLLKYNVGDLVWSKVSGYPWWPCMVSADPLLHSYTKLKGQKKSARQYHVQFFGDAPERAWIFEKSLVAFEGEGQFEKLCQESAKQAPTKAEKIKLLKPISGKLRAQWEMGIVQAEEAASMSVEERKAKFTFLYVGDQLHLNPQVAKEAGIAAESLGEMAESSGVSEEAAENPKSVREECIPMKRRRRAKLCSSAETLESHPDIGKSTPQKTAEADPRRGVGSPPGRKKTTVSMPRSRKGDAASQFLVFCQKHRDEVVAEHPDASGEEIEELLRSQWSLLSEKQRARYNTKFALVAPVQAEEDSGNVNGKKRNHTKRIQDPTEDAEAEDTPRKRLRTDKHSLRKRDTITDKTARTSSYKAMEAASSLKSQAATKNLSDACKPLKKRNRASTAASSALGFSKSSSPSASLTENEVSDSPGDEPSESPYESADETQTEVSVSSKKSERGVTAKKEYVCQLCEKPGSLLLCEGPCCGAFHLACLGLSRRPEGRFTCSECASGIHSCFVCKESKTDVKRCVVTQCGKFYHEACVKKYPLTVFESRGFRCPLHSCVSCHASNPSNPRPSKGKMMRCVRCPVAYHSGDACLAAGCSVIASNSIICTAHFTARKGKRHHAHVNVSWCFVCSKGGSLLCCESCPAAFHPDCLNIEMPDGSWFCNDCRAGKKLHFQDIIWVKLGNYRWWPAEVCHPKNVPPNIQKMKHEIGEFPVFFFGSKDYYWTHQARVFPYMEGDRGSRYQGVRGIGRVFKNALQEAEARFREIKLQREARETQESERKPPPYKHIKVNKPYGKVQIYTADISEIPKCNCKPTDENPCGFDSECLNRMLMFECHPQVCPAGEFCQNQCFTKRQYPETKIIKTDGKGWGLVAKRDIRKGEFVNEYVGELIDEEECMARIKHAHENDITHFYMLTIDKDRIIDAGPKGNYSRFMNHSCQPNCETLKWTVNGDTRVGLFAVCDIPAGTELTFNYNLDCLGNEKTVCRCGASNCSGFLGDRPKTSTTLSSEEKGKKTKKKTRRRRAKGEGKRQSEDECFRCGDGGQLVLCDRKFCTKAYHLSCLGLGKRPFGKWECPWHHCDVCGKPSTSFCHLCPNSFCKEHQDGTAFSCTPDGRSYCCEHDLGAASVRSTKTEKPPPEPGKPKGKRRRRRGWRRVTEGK

[6] = biological target: T1, von Hippel-Lindau disease tumor suppressor/Histone-lysine N-methyltransferase, H3 lysine-79 specific; experiment: PROTAC activity at VHL/DOT1L in mixed-lineage leukemia rearranged (MLL-r) human MV4-11 cells assessed as induction of DOTIL degradation by measuring fold change in DOT1L protein level at 3 uM incubated for 2 hrs by western blot analysis relative to control; format: cell-based
Target sequence in this assay (P40337 whole entry, looked up): as the sequence (P40337 whole entry, looked up) above
Target sequence in this assay (Q8TEK3 whole entry, looked up): as the sequence (Q8TEK3 whole entry, looked up) above

[7] = biological target: T1, von Hippel-Lindau disease tumor suppressor/Histone-lysine N-methyltransferase, H3 lysine-79 specific; experiment: PROTAC activity at VHL/DOT1L in mixed-lineage leukemia rearranged (MLL-r) human MV4-11 cells assessed as induction of DOTIL degradation by measuring fold change in H3K79Me2 level at 3 uM incubated for 24 hrs by western blot analysis relative to control; format: cell-based
Target sequence in this assay (P40337 whole entry, looked up): as the sequence (P40337 whole entry, looked up) above
Target sequence in this assay (Q8TEK3 whole entry, looked up): as the sequence (Q8TEK3 whole entry, looked up) above

[8] = biological target: Histone-lysine N-methyltransferase, H3 lysine-79 specific (Homo sapiens) (UniProt Q8TEK3); experiment: Inhibition of human DOT1L using oligonucleosomes and SAM as substrate at 4.6 nM by radiometric Hotspot assay
[9] = biological target: T1, von Hippel-Lindau disease tumor suppressor/Histone-lysine N-methyltransferase, H3 lysine-79 specific; experiment: PROTAC activity at VHL/DOT1L in mixed-lineage leukemia rearranged (MLL-r) human MV4-11 cells assessed as induction of DOTIL degradation by measuring fold change in H3K79Me2 level at 3 uM incubated for 2 hrs by western blot analysis relative to control; format: cell-based
Target sequence in this assay (P40337 whole entry, looked up): as the sequence (P40337 whole entry, looked up) above
Target sequence in this assay (Q8TEK3 whole entry, looked up): as the sequence (Q8TEK3 whole entry, looked up) above

[10] = biological target: T1, von Hippel-Lindau disease tumor suppressor/Histone-lysine N-methyltransferase, H3 lysine-79 specific; experiment: PROTAC activity at VHL/DOT1L in mixed-lineage leukemia rearranged (MLL-r) human THP-1 cells assessed as induction of DOT1L degradation incubated for 24 hrs by western blot analysis; format: cell-based
[11] = biological target: T1, von Hippel-Lindau disease tumor suppressor/Histone-lysine N-methyltransferase, H3 lysine-79 specific; experiment: PROTAC activity at VHL/DOT1L in mixed-lineage leukemia rearranged (MLL-r) human MV4-11 cells assessed as induction of DOTIL degradation by measuring fold change in DOT1L protein level at 3 uM incubated for 48 hrs by western blot analysis relative to control; format: cell-based
[12] = biological target: T1, von Hippel-Lindau disease tumor suppressor/Histone-lysine N-methyltransferase, H3 lysine-79 specific; experiment: PROTAC activity against VHL/DOT1L in mixed-lineage leukemia rearranged (MLL-r) human THP-1 cells assessed as induction of DOT1L degradation at 3 uM preincubated with NAE inhibitor, MLN4924 for 1 hr followed by incubation with compound for 8 hrs by western blot analysis; format: cell-based
[13] = biological target: T1, von Hippel-Lindau disease tumor suppressor/Histone-lysine N-methyltransferase, H3 lysine-79 specific; experiment: PROTAC activity at VHL/DOT1L in mixed-lineage leukemia rearranged (MLL-r) human THP-1 cells assessed as induction of DOTIL degradation by measuring fold change in DOT1L protein level at 3 uM incubated for 2 hrs by western blot analysis relative to control; format: cell-based

Chain of Histone-lysine N-methyltransferase, H3 lysine-79 specific (Homo sapiens) (Q8TEK3 whole entry, looked up): as above
Chain of Histone-lysine N-methyltransferase EZH2 (Homo sapiens) (Q15910 whole entry, looked up): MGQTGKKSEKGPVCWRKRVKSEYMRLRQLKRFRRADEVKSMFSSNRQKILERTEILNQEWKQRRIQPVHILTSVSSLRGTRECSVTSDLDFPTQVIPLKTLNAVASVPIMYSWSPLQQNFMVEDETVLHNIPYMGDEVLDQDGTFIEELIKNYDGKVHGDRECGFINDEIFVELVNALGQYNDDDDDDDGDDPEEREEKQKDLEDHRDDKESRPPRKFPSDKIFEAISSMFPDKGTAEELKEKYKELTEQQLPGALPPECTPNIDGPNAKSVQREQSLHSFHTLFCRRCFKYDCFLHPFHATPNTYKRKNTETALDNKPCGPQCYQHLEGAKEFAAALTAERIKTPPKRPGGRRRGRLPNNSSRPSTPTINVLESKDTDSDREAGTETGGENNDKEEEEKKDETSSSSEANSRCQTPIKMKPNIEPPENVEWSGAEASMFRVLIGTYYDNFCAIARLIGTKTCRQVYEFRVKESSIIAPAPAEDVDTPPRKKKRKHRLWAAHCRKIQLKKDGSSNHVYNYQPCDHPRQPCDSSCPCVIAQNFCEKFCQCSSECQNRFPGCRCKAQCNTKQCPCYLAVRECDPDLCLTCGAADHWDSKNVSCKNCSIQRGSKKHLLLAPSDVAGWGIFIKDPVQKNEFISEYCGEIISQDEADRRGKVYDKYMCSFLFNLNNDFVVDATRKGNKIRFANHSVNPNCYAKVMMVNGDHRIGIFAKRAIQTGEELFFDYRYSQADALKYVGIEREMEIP

Q: Which Activity [1] does the source give for `Cc1ncsc1-c1ccc([C@H](CC(=O)NCCCCCCNC(=O)COc2nc(N)nc(Nc3cc(S(N)(=O)=O)ccc3N[C@@H](c3cccc4c3OC(F)(F)O4)c3ncccc3Cl)n2)NC(=O)[C@@H]2C[C@@H](O)CN2C(=O)[C@@H](NC(=O)C2(F)CC2)C(C)(C)C)cc1` here?
A: 70%

Q: What about the fold change (FC) [2] of the same compound?
A: 1.26

Q: And the GI50 (MV4-11)?
A: 0.212 µM

Q: What about the inhibition [3] of the same compound?
A: inactive

Q: And the fold change (FC) [4]?
A: 0.12

Q: What about the inhibition [5] of the same compound?
A: inactive

Q: What about the fold change (FC) [6] of the same compound?
A: 0.86

Q: And the fold change (FC) [7]?
A: 0.17

Q: What about the inhibition [8] of the same compound?
A: > 95%

Q: What about the fold change (FC) [9] of the same compound?
A: 0.41

Q: What about the Activity [10] of the same compound?
A: Dose-dependent-effect

Q: What about the DC50 [10] of the same compound?
A: 0.056 µM

Q: What about the fold change (FC) [11] of the same compound?
A: 0.03

Q: And the Activity [12]?
A: inactive

Q: What about the fold change (FC) [13] of the same compound?
A: 0.36
